Source: patent US4278686A, “Carbapenum derivatives, a process for their preparation and their use in pharmaceutical compositions and intermediates” (Beecham Group Limited, priority 1978, dated 1981)
Where two headings read alike, the source gives them in different places.

Columns and labels:
Assay type in all cases: cell-based
[1] = system: Streptococcus pneumoniae CN33; assay: minimum inhibitory concentration, Streptococcus pneumoniae CN33 (DST agar+10% horse blood)
Experimental: (§1) The minimum inhibitory concentrations (MIC) of the compound (e54) was determined using a standard DST agar+10% horse blood substrate. The tests used an undiluted inoculum of bacteria. […]
(§2) The minimum inhibitory concentrations (MIC) of this compound was determined using a standard DST agar+10% horse blood substrate.
(§3) The minimum inhibitory concentrations (MIC) of this compound was determined using a standard DST agar+10% horse blood substrate. The tests used an undiluted inoculum of bacteria.

[2] = system: Pseudomonas aeruginosa A; assay: minimum inhibitory concentration, Pseudomonas aeruginosa A (DST agar+10% horse blood)
Experimental: as §1, §2, §3

[3] = system: Staphylococcus aureus Oxford; assay: minimum inhibitory concentration, Staphylococcus aureus Oxford (DST agar+10% horse blood)
Experimental: as §1, §2, §3

[4] = system: Staphylococcus aureus Russell; assay: minimum inhibitory concentration, Staphylococcus aureus Russell (DST agar+10% horse blood)
Experimental: as §1, §2, §3

[5] = system: Proteus mirabilis C977; assay: minimum inhibitory concentration, Proteus mirabilis C977 (DST agar+10% horse blood)
Experimental: as §1, §2, §3

[6] = system: Bacillus subtilis A; assay: minimum inhibitory concentration, Bacillus subtilis A (DST agar+10% horse blood)
Experimental: as §1, §2, §3

[7] = system: Klebsiella aerogenes A; assay: minimum inhibitory concentration, Klebsiella aerogenes A (DST agar+10% horse blood)
Experimental: as §1, §2, §3

[8] = system: Staphylococcus aureus 1517; assay: minimum inhibitory concentration, Staphylococcus aureus 1517 (DST agar+10% horse blood)
Experimental: as §1, §2, §3

[9] = system: Proteus morganii I580; assay: minimum inhibitory concentration, Proteus morganii I580 (DST agar+10% horse blood); details: Morganella morganii
Experimental: The minimum inhibitory concentrations (MIC) of the compound (e54) was determined using a standard DST agar+10% horse blood substrate. The tests used an undiluted inoculum of bacteria.
Sodium (5R,6S)-3-(2-acetamidoethylthio)--6-ethyl-7-oxo-1-azabicyclo[3.2.0]-hept-2-ene-2-carboxylate [drawing 60] p-Methoxycarbonylbenzyl (5R,6S)-3-(2-acetamidoethylthio)-6-ethyl-7-oxo-1-azabicyclo[3.2.0]hept-2-ene-2-carboxylate (e58) (18 mg) was added to the cathodic compartment of an H-type divided two-compartment electrochemical cell, with a mercury cathode and a platinum anode. The cell contained degassed 0.1 M n-Bu4 NI in dimethylformamide as electrolyte. The volume of the catholyte was about 15 ml [glacial acetic acid (about 10 mg) added] and the volume of the anolyte was about 8 ml. A potentiostat was employed to fix the potential of the cathode at -1.9 V with respect to the standard calomel electrode, and the initial current, about 56 mA, fell to about 15 mA after about 15 min. The catholyte was removed from the cell and the solvent was evaporated in vacuo. The residue was taken up in CH2 Cl2 (10 ml) and washed with water (10 ml). The aqueous phase was separated and washed with CH2 Cl2. The aqueous phase, containing the tetrabutylammonium salt corresponding to (e63) was passed through an Amberlite IR 120 (Na form) column (17×1 cm) and the eluate was reduced to low volume by evaporation in vacuo. The residue was passed through a Biogel P-2 column, to yield fractions containing sodium (5R,6S)-3-(2-acetamidoethylthio)-6-ethyl-7-oxo-1-azabicyclo[3.2.0]hept-2-ene-2-carboxylate (e63) having λmax 298 nm. The minimum inhibitory concentrations (MIC) of this compound was determined using a standard DST agar+10% horse blood substrate.
Sodium (5R,6S)-3-[(E)-2-acetamidoethenylthio]-6-ethyl-7-oxo-1-azabicyclo[3.2.0]hept-2-ene-2-carboxylate [drawing 68] p-Methoxycarbonylbenzyl (5R,6S)-3-[(E)-2-acetamidoethenylthio]-6-ethyl-7-oxo-1-azabicyclo[3.2.0]hept-2-ene-2-carboxylate (e72) (64 mg) in solution in 0.1 M (n-C4 H9)4 NBF4 in dry DMF was added to the cathodic compartment of a divided cylindrical electrochemical cell, with a mercury cathode and platinum anode. The volume of electrolyte in the cathodic compartment was about 25 ml, and in the anodic compartment about 10 ml. Acetic acid (12 mg) was added to the cathodic compartment and ethanol (250 mg) was added to the anodic compartment. The cell was degassed by passing argon for 30 min. The potentiostat was engaged to maintain the potential of the cathode at -1.9 V w.r.t. standard calomel electrode. The initial current (40 mA) fell to about 5 mA after 25 min. The solvent was removed from the catholyte by evaporation in vacuo and the residual oil was taken up in CH2 Cl2 (20 ml) and extracted with water (15 ml) containing sodium tetrafluoroborate (100 mg). The aqueous extract was washed with CH2 Cl2 and then passed down an Amberlite 1R 120 column (1×20 cm) in the sodium form. The volume of the eluate was reduced to about 5 ml by evaporation in vacuo and loaded onto a Biogel P-2 column (18×3 cm). Elution with water yielded fractions containing sodium (5R,6S)-3-[(E)-2-acetamidoethenylthio]-6-ethyl-7-oxo-1-azabicyclo[3.2.0]hept-2-ene-2-carboxylate (e73) λmax 308 nm. The minimum inhibitory concentrations (MIC) of this compound was determined using a standard DST agar+10% horse blood substrate.
Sodium (5R,6R)-3-[(E)-2-acetamidoethenylthio]-6-(1-benzylthioethyl)-7-oxo-1-azabicyclo[3.2.0]hept-2-ene-2-carboxylate [drawing 87] The least polar crystalline isomer of the ester (e93) (40 mg) obtained in Example 70 was added to a mixture of 5% Pd on C (60 mg) in 20% aqueous dioxan (5 ml) which had been prehydrogenated for 0.5 h. Hydrogenation was continued for 4 h and the mixture was filtered through Celite after adding NaHCO3 (7 mg) and water (10 ml). The solution was concentrated to a volume of about 10 ml and was then washed with ethyl acetate (3×30 ml). […]

[10] = system: Escherichia coli 0111; assay: minimum inhibitory concentration, Escherichia coli 0111 (DST agar+10% horse blood)
Experimental: as §1, §2, §3

[11] = system: Escherichia coli JT 39; assay: minimum inhibitory concentration, Escherichia coli JT 39 (DST agar+10% horse blood)
Experimental: as §1, §2, §3

[12] = system: Serratia marcescens US20; assay: minimum inhibitory concentration, Serratia marcescens US20 (DST agar+10% horse blood)
Experimental: as §1, §2, §3

[13] = system: Citrobacter freundii E8; assay: minimum inhibitory concentration, Citrobacter freundii E8 (DST agar+10% horse blood)
Experimental: as §1, §2, §3

[14] = system: Salmonella typhimurium CT10; assay: minimum inhibitory concentration, Salmonella typhimurium CT10 (DST agar+10% horse blood); details: Salmonella enterica
Experimental: as §1, §2, §3

[15] = system: Proteus rettgeri WM16; assay: minimum inhibitory concentration, Proteus rettgeri WM16 (DST agar+10% horse blood); details: Providencia rettgeri
Experimental: as §1, §2, §3

[16] = system: Streptococcus faecalis I; assay: minimum inhibitory concentration, Streptococcus faecalis I (DST agar+10% horse blood); details: Enterococcus faecalis
Experimental: as §1, §2, §3

[17] = system: Enterobacter cloacae N1; assay: minimum inhibitory concentration, Enterobacter cloacae N1 (DST agar+10% horse blood)
Experimental: as §1, §2, §3

[18] = system: Shigella sonnei MB 11967; assay: minimum inhibitory concentration, Shigella sonnei MB 11967 (DST agar+10% horse blood)
Experimental: as §1, §2, §3

[19] = system: E. coli ESS; assay: minimum inhibitory concentration, E. coli ESS (DST agar+10% horse blood); details: Escherichia coli
Experimental: as §1, §2, §3

[20] = system: Proteus vulgaris WO91; assay: minimum inhibitory concentration, Proteus vulgaris WO91 (DST agar+10% horse blood)
Experimental: as §1, §2, §3

[21] = system: Streptococcus pyogenes CN10; assay: minimum inhibitory concentration, Streptococcus pyogenes CN10 (DST agar+10% horse blood)
Experimental: as §1, §2, §3

[22] = Enterobacter cloacae, Enterobactor cloacae N1
[23] = Proteus morganii I580, DST agar+10% horse blood, undiluted inoculum, read-out: MIC
[24] = Enterobacter cloacae N1, undiluted inoculum

## CC[C@@H]1C(=O)N2C(C(=O)[O-])=C(S/C=C/NC(C)=O)C[C@H]12.[Na+] [e73, sodium (5R,6S)-3-[(E)-2-acetamidoethenylthio]-6-ethyl-7-oxo-1-azabicyclo[3.2.0]hept-2-ene-2-carboxylate]
[1]
  MIC: ≤ 0.1 µg/mL
[2]
  MIC: > 40 µg/mL
[3]
  MIC: 0.6 µg/mL
[4]
  MIC: 2.5 µg/mL
[5]
  MIC: 10 µg/mL
[6]
  MIC: 1.2 µg/mL
[7]
  MIC: 2.5 µg/mL
[8]
  MIC: > 40 µg/mL
[9]; Proteus morganii I580, DST agar+10% horse blood, read-out: MIC
  MIC: 5 µg/mL
[10]
  MIC: 2.5 µg/mL
[11]; JT39
  MIC: 10 µg/mL
[12]
  MIC: 5 µg/mL
[13]
  MIC: 2.5 µg/mL
[14]
  MIC: 1.2 µg/mL
[15]
  MIC: 10 µg/mL
[16]
  MIC: 40 µg/mL
[17]; [22]
  MIC: 2.5 µg/mL
[18]; MB11967
  MIC: 2.5 µg/mL
[19]
  MIC: 0.3 µg/mL
[20]
  MIC: 10 µg/mL

## C=CCSC(C)[C@H]1C(=O)N2C(C(=O)[O-])=C(S/C=C/NC(C)=O)C[C@H]12.[Na+] (stereo partly drawn) [e96, Sodium (5R,6R)-3-[(E)-2-acetamidoethenylthio]-6-(1-allylthioethyl)-7-oxo-1-azabicyclo[3.2.0]hept-2-ene-2-carboxylate]
[1]
  MIC: ≤ 0.2 µg/mL
[2]
  MIC: > 100 µg/mL
[3]
  MIC: 0.8 µg/mL
[4]
  MIC: 1.6 µg/mL
[5]
  MIC: 100 µg/mL
[6]
  MIC: 1.6 µg/mL
[7]
  MIC: 6.2 µg/mL
[8]
  MIC: 12.5 µg/mL
[21]
  MIC: 0.4 µg/mL
[9]; I580
  MIC: 50 µg/mL
[10]
  MIC: 50 µg/mL
[11]; JT39
  MIC: 25 µg/mL
[12]
  MIC: 50 µg/mL
[13]
  MIC: 50 µg/mL
[14]
  MIC: 25 µg/mL
[15]
  MIC: 50 µg/mL
[16]
  MIC: 50 µg/mL
[17]; [22]
  MIC: 25 µg/mL
[18]; MB11967
  MIC: 25 µg/mL
[19]
  MIC: 1.6 µg/mL
[20]
  MIC: 25 µg/mL

## CC[C@H]1C(=O)N2C(C(=O)[O-])=C(S/C=C/NC(C)=O)C[C@H]12.[Na+] [e54, sodium (5R,6R)-3-[(E)-2-acetamidoethenylthio]-6-ethyl-7-oxo-1-azabicyclo[3.2.0]hept-2-ene-2-carboxylate]
[1]; undiluted inoculum
  MIC: 0.1 µg/mL
[2]; undiluted inoculum
  MIC: > 50 µg/mL
[3]; undiluted inoculum
  MIC: 0.4 µg/mL
[4]; undiluted inoculum
  MIC: 0.4 µg/mL
[5]; undiluted inoculum
  MIC: 25 µg/mL
[6]; undiluted inoculum
  MIC: 0.8 µg/mL
[7]; undiluted inoculum
  MIC: 3.1 µg/mL
[8]; undiluted inoculum
  MIC: 12.5 µg/mL
[21]; undiluted inoculum
  MIC: 0.2 µg/mL
[9]; [23]
  MIC: 25 µg/mL
[10]; undiluted inoculum
  MIC: 3.1 µg/mL
[11]; JT39, undiluted inoculum
  MIC: 3.1 µg/mL
[12]; undiluted inoculum
  MIC: 12.5 µg/mL
[13]; undiluted inoculum
  MIC: 12.5 µg/mL
[14]; undiluted inoculum
  MIC: 3.1 µg/mL
[15]; undiluted inoculum
  MIC: 25 µg/mL
[16]; undiluted inoculum
  MIC: 25 µg/mL
[17]; [24]
  MIC: 25 µg/mL
[18]; MB11967, undiluted inoculum
  MIC: 3.1 µg/mL
[19]; undiluted inoculum
  MIC: 0.4 µg/mL
[20]; undiluted inoculum
  MIC: 25 µg/mL

## CSC(C)[C@H]1C(=O)N2C(C(=O)[O-])=C(S/C=C/NC(C)=O)C[C@H]12.[Na+] (single isomer, unassigned) [e101]
[1]; undiluted inoculum
  MIC: 0.1 µg/mL
[2]; undiluted inoculum
  MIC: 50 µg/mL
[3]; undiluted inoculum
  MIC: 0.5 µg/mL
[4]; undiluted inoculum
  MIC: 0.5 µg/mL
[5]; undiluted inoculum
  MIC: 12.5 µg/mL
[6]; undiluted inoculum
  MIC: 1.2 µg/mL
[7]; undiluted inoculum
  MIC: 2.5 µg/mL
[8]; undiluted inoculum
  MIC: 12.5 µg/mL
[21]; undiluted inoculum
  MIC: 0.2 µg/mL
[9]; [23]
  MIC: 12.5 µg/mL
[10]; undiluted inoculum
  MIC: 2.5 µg/mL
[11]; JT39, undiluted inoculum
  MIC: 2.5 µg/mL
[12]; undiluted inoculum
  MIC: 5 µg/mL
[13]; undiluted inoculum
  MIC: 5 µg/mL
[14]; undiluted inoculum
  MIC: 1.2 µg/mL
[15]; undiluted inoculum
  MIC: 5 µg/mL
[16]; undiluted inoculum
  MIC: 12.5 µg/mL
[17]; [24]
  MIC: 2.5 µg/mL
[18]; MB11967, undiluted inoculum
  MIC: 1.2 µg/mL
[19]; undiluted inoculum
  MIC: 1.2 µg/mL
[20]; undiluted inoculum
  MIC: 5 µg/mL
